The target of one test is T1, Pendrin (Homo sapiens) (UniProt O43511).
T1 sequence (whole entry): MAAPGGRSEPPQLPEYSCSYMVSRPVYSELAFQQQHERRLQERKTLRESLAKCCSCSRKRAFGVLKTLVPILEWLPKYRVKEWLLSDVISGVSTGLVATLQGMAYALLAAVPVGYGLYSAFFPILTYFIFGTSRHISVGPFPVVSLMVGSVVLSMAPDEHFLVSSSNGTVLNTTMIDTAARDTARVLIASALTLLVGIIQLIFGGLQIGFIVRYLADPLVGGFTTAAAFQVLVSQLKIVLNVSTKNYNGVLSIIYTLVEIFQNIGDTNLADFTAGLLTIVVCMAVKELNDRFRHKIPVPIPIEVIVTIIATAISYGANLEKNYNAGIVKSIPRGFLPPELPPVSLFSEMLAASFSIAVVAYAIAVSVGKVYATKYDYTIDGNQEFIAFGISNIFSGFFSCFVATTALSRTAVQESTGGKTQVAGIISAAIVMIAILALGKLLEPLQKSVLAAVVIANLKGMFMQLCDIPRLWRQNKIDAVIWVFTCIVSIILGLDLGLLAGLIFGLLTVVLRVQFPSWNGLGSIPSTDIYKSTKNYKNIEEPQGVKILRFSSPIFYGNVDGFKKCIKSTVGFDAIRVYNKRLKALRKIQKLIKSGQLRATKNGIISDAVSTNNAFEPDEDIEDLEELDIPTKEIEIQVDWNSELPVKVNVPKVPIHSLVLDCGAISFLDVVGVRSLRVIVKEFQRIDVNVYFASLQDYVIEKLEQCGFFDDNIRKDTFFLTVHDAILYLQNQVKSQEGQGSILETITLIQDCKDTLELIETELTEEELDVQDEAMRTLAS
Put plainly: Inhibition of pendrin in human bronchial epithelial cells assessed as increase in airway surface liquid depth at 25 uM by rhodamine B-dextran fluorescence based confocal microscopy (reference value: -16 um).

The species entered for test [1] is Homo sapiens. Put plainly: Inhibition of potassium channel in human bronchial epithelial cells assessed as effect on short-circuit current at 25 uM pre-incubated for 30 mins.
The species named for test [2] is Homo sapiens. Nature of the test: Effect on airway surface liquid depth in NHBE cells at 25 uM by rhodamine B-dextran fluorescence based confocal microscopy. Type of test: functional, cell-based.
The species entered for test [3] is Homo sapiens. Nature of the test: Effect on gluconate gradient-induced Cl/HC03- efflux in NHBE cells at 25 uM. Type of test: functional, cell-based.
Test [4] deals with Mus musculus. Nature of the test: Potentiation of 20 mg/kg, ip furosemide-induced acute diuretic action in CD1 mouse assessed as effect on urine pH at 10 mg/kg, ip relative to control. Format: functional, organism-based.
Test [5] has as its target T2, Pendrin (Mus musculus) (UniProt Q9R155).
T2 sequence (whole entry): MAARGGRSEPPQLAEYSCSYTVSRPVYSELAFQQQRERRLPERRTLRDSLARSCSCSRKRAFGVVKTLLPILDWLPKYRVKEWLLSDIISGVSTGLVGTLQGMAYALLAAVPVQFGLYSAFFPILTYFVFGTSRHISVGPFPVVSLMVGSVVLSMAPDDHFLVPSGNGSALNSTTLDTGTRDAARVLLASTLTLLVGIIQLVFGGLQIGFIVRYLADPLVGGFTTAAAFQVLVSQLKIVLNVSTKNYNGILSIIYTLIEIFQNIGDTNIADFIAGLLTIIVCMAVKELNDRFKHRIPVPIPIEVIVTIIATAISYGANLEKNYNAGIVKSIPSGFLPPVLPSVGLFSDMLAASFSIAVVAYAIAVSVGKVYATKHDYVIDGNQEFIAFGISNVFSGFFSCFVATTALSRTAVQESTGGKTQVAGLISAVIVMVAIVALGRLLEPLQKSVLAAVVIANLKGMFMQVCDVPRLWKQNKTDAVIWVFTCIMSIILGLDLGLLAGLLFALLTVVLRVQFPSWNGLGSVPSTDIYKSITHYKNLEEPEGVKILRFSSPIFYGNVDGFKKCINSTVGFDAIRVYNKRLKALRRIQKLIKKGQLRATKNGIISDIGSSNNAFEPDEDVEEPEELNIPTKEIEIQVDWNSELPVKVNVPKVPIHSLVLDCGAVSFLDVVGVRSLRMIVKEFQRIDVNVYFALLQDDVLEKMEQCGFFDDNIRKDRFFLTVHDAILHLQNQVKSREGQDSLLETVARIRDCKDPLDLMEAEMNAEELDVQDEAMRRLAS
Put plainly: Inhibition of mouse pendrin expressed in FRT cells co-expressing YFP-HIF assessed as reduction in pendrin-mediated exchange of Cl(-) with NO3(-) by pH-sensitive fluorescent probe BCECF-AM based fluorescence assay relative to control. Format: cell-based.

Test [6] relates to Mus musculus. Nature of the test: Potentiation of 20 mg/kg, ip furosemide-induced acute diuretic action in CD1 mouse assessed as increase in urinary Na+ excretion at 50 mg/kg, ip measured at 3 hrs relative to control. Format: functional, organism-based.
Test [7] addresses T2, Pendrin (Mus musculus). Nature of the test: Inhibition of mouse pendrin expressed in FRT cells co-expressing YFP-HIF assessed as reduction in pendrin-mediated exchange of Cl(-) with SCN(-) by pH-sensitive fluorescent probe BCECF-AM based fluorescence assay relative to control. Type of test: cell-based.
In another test the target is T3, Pendrin (Homo sapiens, UniProt O43511).
T3 sequence (O43511 whole entry): T1 sequence (whole entry)
Nature of the test: Inhibition of human pendrin expressed in FRT cells co-expressing EYFP-HIF assessed as reduction in pendrin-mediated Cl(-)/r exchange incubated for 10 mins by pH-sensitive fluorescent probe BCECF-AM based fluorescence assay relative to control. Type of test: cell-based.

Test [8] has as its target T4, Chloride anion exchanger (Mus musculus) (UniProt Q9WVC8).
T4 sequence (whole entry): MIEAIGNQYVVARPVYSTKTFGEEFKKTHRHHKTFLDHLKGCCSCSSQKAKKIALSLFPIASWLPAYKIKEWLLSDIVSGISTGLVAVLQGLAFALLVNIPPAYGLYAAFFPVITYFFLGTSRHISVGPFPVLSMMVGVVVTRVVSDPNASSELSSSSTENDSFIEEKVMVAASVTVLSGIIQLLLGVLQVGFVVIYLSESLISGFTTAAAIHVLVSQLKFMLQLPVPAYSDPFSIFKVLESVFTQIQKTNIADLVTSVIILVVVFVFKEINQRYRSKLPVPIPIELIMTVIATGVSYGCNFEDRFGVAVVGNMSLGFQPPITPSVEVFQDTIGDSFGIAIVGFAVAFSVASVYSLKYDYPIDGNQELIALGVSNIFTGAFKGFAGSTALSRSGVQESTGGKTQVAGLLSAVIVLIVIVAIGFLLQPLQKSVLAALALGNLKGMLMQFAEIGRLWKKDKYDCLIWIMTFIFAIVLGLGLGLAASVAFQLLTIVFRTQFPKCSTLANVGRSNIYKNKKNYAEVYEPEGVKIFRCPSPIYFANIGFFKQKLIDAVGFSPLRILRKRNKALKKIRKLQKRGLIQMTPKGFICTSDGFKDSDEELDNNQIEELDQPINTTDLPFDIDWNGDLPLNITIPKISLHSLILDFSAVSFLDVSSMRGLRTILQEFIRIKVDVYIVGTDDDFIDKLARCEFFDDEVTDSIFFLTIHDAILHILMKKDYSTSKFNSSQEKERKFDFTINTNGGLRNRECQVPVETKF
Nature of the test: Inhibition of myc-tagged mouse Slc26a3 expressed in COS7 co-expressing EYFP-HIF assessed as effect on SCN(-) gradient at 25 uM by YFP-based fluorescence quenching assay.

Activity calls are given as the source filed them. The rule behind the calls is not given here.

A word on the IC50: it is the concentration that inhibits the measured activity by half.

On to `Cn1nc(COc2cccc(F)c2)c2c1CCN(C(=O)Nc1ccc(Cl)cc1)C2`, for which the Activity on Pendrin (Homo sapiens) is -8 µm. Also, in the test filed under Homo sapiens [1], the inhibition entry was “inactive”. Further, the outcome in the test filed under Homo sapiens [2] and in the test listed under Homo sapiens [3] was inactive.
For `Cc1n[nH]c(-c2cc(S(=O)(=O)NC3CCCc4ccccc43)c(C)s2)c1C` (stereo not given), in the test with Mus musculus [4], the result was inactive. The inhibition result at Pendrin (Mus musculus) [5] and on Pendrin (Mus musculus) [7] was “Dose-dependent effect” throughout. Further, in the test with Mus musculus [6], the outcome was Active. For the same molecule, on Pendrin, the half-inhibitory concentration (IC50) worked out at 8 µM. The inhibition result in test [8] is “inactive”.

(Values after ChEMBL document CHEMBL4417636, “Small molecule inhibitors of pendrin ion exchange and pharmaceutical compositions” (2017).)
